Test system: myocardial cells (death induced from partial myocardial ischemia)
Test: Embodiment 1: myocardial infarct size after 1 h ligature of the left descending coronary branch and 1 h reperfusion (TTC staining)
Type: in vivo, Crl:CD(SD) SPF rats

| Structure (SMILES) | effect on myocardial infarct size compared with the blank control group (in words) (Embodiment 1, Table 1, STA-2 alone in high dose or in low dose) | Myocardial Infarction Percentage (%) (rat, tube-fed once daily 7 days + IP 1/3 dose after ligation, isosorbide dinitrate 18.75 mg/Kg, STA-2 low dose 250 mg/Kg, Aspirin 8.3 mg/Kg, mean ± SEM) | effect on myocardial infarct size compared with the blank control group (in words) (rat, in vivo) |
| --- | --- | --- | --- |
| CC(=O)Oc1ccccc1C(=O)O [Aspirin] | did not produce any statistically meaningful effects | 14.75 ± 2.8% | – |
| O=[N+]([O-])O[C@H]1CO[C@H]2[C@@H]1OC[C@H]2O[N+](=O)[O-] [isosorbide dinitrate] | – | – | significant reduction in myocardial infarct size |
